From ChEMBL document CHEMBL1141299, “Hologram QSAR model for the prediction of human oral bioavailability” (Bioorg Med Chem, 2007)

Experiment: Oral bioavailability in human
Settings: in vivo

SMILES	bioavailability [%]
C[C@H]1O[C@@H](O[C@H]2[C@@H](O)C[C@H](O[C@H]3[C@@H](O)C[C@H](O[C@H]4CC[C@@]5(C)[C@H](CC[C@@H]6[C@@H]5CC[C@]5(C)[C@@H](C7=CC(=O)OC7)CC[C@]65O)C4)O[C@@H]3C)O[C@@H]2C)C[C@H](O)[C@@H]1O [DIGITOXIN]	88.5
COc1c(N2CCN[C@H](C)C2)c(F)cc2c(=O)c(C(=O)O)cn(C3CC3)c12 [(R)-GATIFLOXACIN]	96
NCC1(CC(=O)O)CCCCC1 [GABAPENTIN]	60
NS(=O)(=O)c1cc([C@@]2(O)NC(=O)c3ccccc32)ccc1Cl	64
NS(=O)(=O)c1cc([C@]2(O)NC(=O)c3ccccc32)ccc1Cl [(R)-CHLORTHALIDONE]	64
CCN[C@@H](C)Cc1cccc(C(F)(F)F)c1 [DEXFENFLURAMINE]	89
CC[C@H](OC(C)=O)C(C[C@H](C)N(C)C)(c1ccccc1)c1ccccc1 [LEVOMETHADYL ACETATE]	47
CC[C@@H](CO)NC(=O)[C@@H]1C=C2c3cccc4c3c(cn4C)C[C@H]2N(C)C1 [METHYSERGIDE]	13
OCCN1CCN(CCCN2c3ccccc3Sc3ccc(C(F)(F)F)cc32)CC1 [FLUPHENAZINE]	2.7
CC(C)C[C@H]1C(=O)N2CCC[C@H]2[C@]2(O)O[C@](NC(=O)[C@@H]3C=C4c5cccc6[nH]c(Br)c(c56)C[C@H]4N(C)C3)(C(C)C)C(=O)N12 [BROMOCRIPTINE]	4.5
O=C(O)[C@H]1N=C(c2ccccc2)c2cc(Cl)ccc2NC1=O	91
COc1ccc([C@@H](CN(C)C)C2(O)CCCCC2)cc1 [(S)-VENLAFAXINE]	45
CCC(=O)C(C[C@H](C)N(C)C)(c1ccccc1)c1ccccc1 [ESMETHADONE]	92
CN1C(=O)[C@@H](O)N=C(c2ccccc2Cl)c2cc(Cl)ccc21 [(R)-LORMETAZEPAM]	75
CN1CCN(C(=O)O[C@@H]2c3nccnc3C(=O)N2c2ccc(Cl)cn2)CC1	80
COc1ccc([C@H](CN(C)C)C2(O)CCCCC2)cc1	45
CCC(C(N)=O)(C(N)=O)c1ccccc1 [PHENYLETHYLMALONAMIDE]	91
CC[C@]1(c2ccccc2)C(=O)NC(=O)N(C)C1=O [(S)-METHYLPHENOBARBITAL]	73
COc1c(N2C[C@@H]3CCCN[C@@H]3C2)c(F)cc2c(=O)c(C(=O)O)cn(C3CC3)c12 [MOXIFLOXACIN]	90
COC(=O)C1=C(C)NC(C)=C(C(=O)OC)C1c1ccccc1[N+](=O)[O-] [NIFEDIPINE]	50
O=C(O[C@H]1C[C@H]2CC[C@@H](C1)[N+]21CCCC1)C(O)(c1ccccc1)c1ccccc1 [TROSPIUM]	9.6
O=C1Nc2ccc(Cl)cc2C(c2ccccc2Cl)=N[C@H]1O [(S)-LORAZEPAM]	93
CC(C)N(CC[C@](C(N)=O)(c1ccccc1)c1ccccn1)C(C)C [(S)-DISOPYRAMIDE]	83
C[C@H](N)Cc1cccc(C(F)(F)F)c1 [NORDEXFENFLURAMINE]	85

Same assay, conditions: in vivo, F

SMILES	bioavailability [%]
O=C(O)Cc1nn(-c2ccc(F)cc2)cc1-c1ccc(Cl)cc1 [PIRAZOLAC]	93.5
CCCC1O[C@@H]2C[C@H]3[C@@H]4CCC5=CC(=O)C=C[C@]5(C)[C@H]4[C@@H](O)C[C@]3(C)[C@]2(C(=O)CO)O1 (some centres undefined) [BUDESONIDE]	11
COc1ccc(CCN(C)CCC[C@@](C#N)(c2ccc(OC)c(OC)c2)C(C)C)cc1OC	13.5
CCOc1nc2cccc(C(=O)O)c2n1Cc1ccc(-c2ccccc2-c2nnn[nH]2)cc1	15
CN(C)[C@@H]1C(O)=C(C(N)=O)C(=O)[C@@]2(O)C(O)=C3C(=O)c4c(O)cccc4[C@@](C)(O)[C@H]3C[C@@H]12 [TETRACYCLINE]	77
C=C[C@H]1C[N@@]2CC[C@H]1C[C@@H]2[C@@H](O)c1ccnc2ccc(OC)cc12 [QUINIDINE]	75
CNCC[C@@H](Oc1ccccc1C)c1ccccc1 [ATOMOXETINE]	63
CN(C)CCc1c[nH]c2ccc(Cn3cncn3)cc12 [RIZATRIPTAN]	45
CCOC(=O)C1=C(C)NC(C)=C(C(=O)OC)[C@H]1c1cccc([N+](=O)[O-])c1 [(R)-NITRENDIPINE]	16
NS(=O)(=O)c1cc2c(cc1Cl)NCNS2(=O)=O [HYDROCHLOROTHIAZIDE]	71
CCN(CC)CCC[C@H](C)Nc1ccnc2cc(Cl)ccc12	80
Nc1nc(=O)n([C@@H]2CS[C@H](CO)O2)cc1F [EMTRICITABINE]	93
COc1cc2nc(N3CCN(C(=O)C4COc5ccccc5O4)CC3)nc(N)c2cc1OC (centres undefined) [DOXAZOSIN]	65
CCCC(CCC)C(=O)O [VALPROIC ACID]	90
CC[C@@]1(O)C(=O)OCc2c1cc1n(c2=O)Cc2cc3c(CN(C)C)c(O)ccc3nc2-1 [TOPOTECAN]	32
CCN1C[C@H](CCN2CCOCC2)C(c2ccccc2)(c2ccccc2)C1=O [(R)-DOXAPRAM]	61
Cn1c(=O)c2c(ncn2C)n(C)c1=O [CAFFEINE]	100
CC(C)(C)NC[C@H](O)COc1cccc2c1C[C@H](O)[C@H](O)C2 [S-NADOLOL]	34
C=C1c2cccc(O)c2C(=O)C2=C(O)[C@]3(O)C(=O)C(C(N)=O)=C(O)[C@@H](N(C)C)[C@@H]3[C@@H](O)[C@H]12 [METHACYCLINE]	58
CCc1cccc2cc([C@@H](O)CNC(C)(C)C)oc12 [(S)-BUFURALOL]	46

SMILES	bioavailability [%]
CN(C)CCC[C@@]1(c2ccc(F)cc2)OCc2cc(C#N)ccc21 [ESCITALOPRAM]	80
O[C@@](CCN1CCCC1)(c1ccccc1)C1CCCCC1 [(R)-PROCYCLIDINE]	75
CNC/C=C(\c1ccc(Br)cc1)c1cccnc1 [NORZIMELIDINE]	66
CCCc1nc(C)c2c(=O)[nH]c(-c3cc(S(=O)(=O)N4CCN(CC)CC4)ccc3OCC)nn12	15
CC(=O)[C@]1(O)Cc2c(O)c3c(c(O)c2[C@@H](O[C@H]2C[C@H](N)[C@H](O)[C@H](C)O2)C1)C(=O)c1ccccc1C3=O [IDARUBICIN]	28
CC(C)[C@H]1CC[C@H](C(=O)N[C@@H](Cc2ccccc2)C(=O)O)CC1 [(S)-NATEGLINIDE]	73
CS(=O)(=O)OCCCCOS(C)(=O)=O [BUSULFAN]	80
Cc1cc2c(OC[C@@H](O)CNC(C)C)cccc2[nH]1 [(S)-MEPINDOLOL]	82
CC(C)(C)NC[C@@H](O)COc1cccc2c1C[C@H](O)[C@H](O)C2 [R-NADOLOL]	34
COc1ccc(-c2nc(-c3ccc(F)cc3F)[nH]c2-c2ccc(OC)cc2)cc1 [FENFLUMIZOLE]	50
O=C1Cc2cc(CCN3CCN(c4nsc5ccccc45)CC3)c(Cl)cc2N1 [ZIPRASIDONE]	60
CC(C)COC[C@@H](CN(Cc1ccccc1)c1ccccc1)N1CCCC1	60
CN1Cc2c(N)cccc2[C@@H](c2ccccc2)C1	27
COc1cc(N[C@@H](C)CCCN)c2ncccc2c1	96
COc1cc2ncnc(Nc3ccc(F)c(Cl)c3)c2cc1OCCCN1CCOCC1 [GEFITINIB]	60
CN(C)c1ccc(O)c2c1C[C@H]1C[C@H]3[C@H](N(C)C)C(O)=C(C(N)=O)C(=O)[C@@]3(O)C(O)=C1C2=O [MINOCYCLINE]	97.5
CO/N=C1\CN(c2nc3c(cc2F)c(=O)c(C(=O)O)cn3C2CC2)C[C@@H]1CN	71
CCN(CC)CCNC(=O)c1ccc(N)cc1 [PROCAINAMIDE]	83
COc1ccnc(C[S+]([O-])c2nc3ccc(OC(F)F)cc3[nH]2)c1OC (centres undefined) [PANTOPRAZOLE]	77
CC(C)[C@H](N)C(=O)OC[C@@H](CO)OCn1cnc2c(=O)nc(N)[nH]c21 [(R)-VALGANCICLOVIR]	59.4

SMILES	bioavailability [%]
Cc1scc2c1N(C(=O)CN1CCN(C)CC1)c1ccccc1NC2=O [TELENZEPINE]	54
Nc1nc(=O)[nH]cc1F [FLUCYTOSINE]	83.5
Cc1cccc(OC[C@H](O)CNC(C)C)c1 [(R)-TOLIPROLOL]	90
O=C1CN(/N=C/c2ccc([N+](=O)[O-])o2)C(=O)N1 [NITROFURANTOIN]	87
C[C@@H](OC1OCCN(Cc2n[nH]c(=O)[nH]2)C1c1ccc(F)cc1)c1cc(C(F)(F)F)cc(C(F)(F)F)c1 (single isomer, unassigned) [APREPITANT]	62.5
C[C@@H]1C[C@H]2[C@@H]3C[C@H](F)C4=CC(=O)C=C[C@]4(C)[C@@]3(F)[C@@H](O)C[C@]2(C)[C@@]1(O)C(=O)SCF [FLUTICASONE]	1
O=C(O)c1cc(-c2ccc(F)cc2F)ccc1O [DIFLUNISAL]	100
O=C(O)[C@H]1/C(=C/CO)O[C@@H]2CC(=O)N21 [CLAVULANIC ACID]	75
C#C[C@]1(O)CC[C@H]2[C@@H]3CCc4cc(O)ccc4[C@H]3CC[C@@]21C [ETHINYL ESTRADIOL]	40
CS(=O)(=O)c1ccc(C2=C(c3ccccc3)C(=O)OC2)cc1 [ROFECOXIB]	93
CC(=O)Nc1ccc(O)cc1 [ACETAMINOPHEN]	88
CC(C)(C#N)c1cc(Cn2cncn2)cc(C(C)(C)C#N)c1 [ANASTROZOLE]	84
CC(C)COC[C@H](CN(Cc1ccccc1)c1ccccc1)N1CCCC1	60
C[C@H](C(=O)O)c1ccc(C(=O)c2cccs2)cc1 [(S)-SUPROFEN]	92
O=C(c1ccc(OCCN2CCCCC2)cc1)c1c(-c2ccc(O)cc2)sc2cc(O)ccc12 [RALOXIFENE]	2
C=CC[C@@H]1/C=C(\C)C[C@H](C)C[C@H](OC)[C@H]2O[C@@](O)(C(=O)C(=O)N3CCCC[C@H]3C(=O)O[C@H](/C(C)=C/[C@@H]3CC[C@@H](O)[C@H](OC)C3)[C@H](C)[C@@H](O)CC1=O)[C@H](C)C[C@@H]2OC [TACROLIMUS ANHYDROUS]	17
C[C@@H](CN1CCN(CCOCCO)CC1)CN1c2ccccc2Sc2ccccc21	10
Cc1cn([C@H]2C=C[C@@H](CO)O2)c(=O)[nH]c1=O [STAVUDINE]	82
CCC1(c2ccccc2)C(=O)NCNC1=O [PRIMIDONE]	92
Clc1cccc(Cl)c1N=C1NCCN1 [CLONIDINE]	60
